Results: US20250163051A1, “PYRIMIDO AROMATIC RING COMPOUND AND USE THEREOF IN DRUG” (SUNSHINE LAKE PHARMA CO., LTD., priority 2022, published 2025)
Like-named read-outs stand apart in the source and are kept apart here.

What was measured:
hTLR8 = molecular target: T1, hTLR8 (Homo sapiens, UniProt Q9NR97); assay: Agonistic activity on human TLR8 in HEK-Blue hTLR8 cells (QUANTI-Blue); assay type: cell-based; settings: 24 h incubation, OD650, read-out: hTLR 8 EC50
T1 construct: expressed in transfected cells; host or cells: HEK-Blue hTLR8 cells
T1 sequence (Q9NR97 27-1041): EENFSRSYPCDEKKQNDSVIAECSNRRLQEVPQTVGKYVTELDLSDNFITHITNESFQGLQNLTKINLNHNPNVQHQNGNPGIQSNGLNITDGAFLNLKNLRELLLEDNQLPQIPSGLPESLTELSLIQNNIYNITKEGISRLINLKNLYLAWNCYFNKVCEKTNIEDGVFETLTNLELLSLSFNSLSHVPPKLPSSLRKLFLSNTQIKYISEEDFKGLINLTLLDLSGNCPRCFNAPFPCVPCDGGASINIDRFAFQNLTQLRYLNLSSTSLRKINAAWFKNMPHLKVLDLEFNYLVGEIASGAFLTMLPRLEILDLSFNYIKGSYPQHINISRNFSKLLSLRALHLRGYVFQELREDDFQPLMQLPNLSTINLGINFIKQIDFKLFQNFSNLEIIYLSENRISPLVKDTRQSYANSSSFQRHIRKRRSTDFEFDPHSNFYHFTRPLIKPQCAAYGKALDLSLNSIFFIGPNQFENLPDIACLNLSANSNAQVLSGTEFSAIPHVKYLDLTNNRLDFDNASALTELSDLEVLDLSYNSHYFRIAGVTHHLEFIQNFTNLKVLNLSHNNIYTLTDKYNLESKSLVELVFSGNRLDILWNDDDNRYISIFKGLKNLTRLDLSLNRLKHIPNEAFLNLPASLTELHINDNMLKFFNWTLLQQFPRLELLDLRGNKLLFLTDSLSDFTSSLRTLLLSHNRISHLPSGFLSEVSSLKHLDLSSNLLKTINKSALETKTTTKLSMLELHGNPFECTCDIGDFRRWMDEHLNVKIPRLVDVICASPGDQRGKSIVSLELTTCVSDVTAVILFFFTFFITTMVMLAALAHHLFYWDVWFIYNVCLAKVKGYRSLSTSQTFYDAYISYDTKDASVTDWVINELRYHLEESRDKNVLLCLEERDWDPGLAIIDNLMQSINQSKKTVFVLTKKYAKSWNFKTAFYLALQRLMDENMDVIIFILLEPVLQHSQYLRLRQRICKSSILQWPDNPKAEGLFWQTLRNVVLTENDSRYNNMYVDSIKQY
Protocol: (§1) Purpose: HEK-Blue™ hTLR7 and HEK-Blue™ hTLR8 cells were used to detect the agonist and cytotoxic activities of compounds against hTLR7 and hTLR8.
(§2) The experimental steps were as shown below: • 1) Preparation of compound: The compound was prepared into a 20 mM stock solution with DMSO, and then the stock solution was diluted 3-fold in a gradient and added to a 96-well plate, for a total of 10 concentrations, with duplicate wells for each concentration. For negative control wells, 0.5 μL DMSO was added to each well. The final DMSO concentration was 0.5%. • 2) HEK-Blue™ hTLR7 or HEK-Blue™ hTLR8 cells were suspended in culture medium and then seeded into 96-well plates containing compounds at a cell count of 50,000 per well. The compounds and cells were incubated for 24 h at 37° C., 5% Co2. • 3) QUANTI-Blue was used for the detection solution: to a mixture of 1 mL of QB reagent and 1 mL of QB buffer was added 98 mL of sterile water, the mixture was mixed and dissolved, and then placed at room temperature for 10 min. • 4) Activity test of the compound: 20 μL of the culture supernatant in step 2) was added to each well of a 96-well plate containing 180 μL of QUANTI-Blue detection solution. After incubation at 37° C. for 1 h, the absorbance at 650 nm (OD650) was detected using a multifunctional microplate reader Flextation III. • 5) Detection of cell activity: The chemiluminescent signal (RLU) was detected using the multifunctional microplate reader Flextation III according to the instructions of Celltiter-Glo. • 6) Data analysis
Activity of compounds: OD650 values were analyzed using GraphPad Prism software, and the compound dose-effect curves were fitted to calculate the EC50 values of the compounds.

hERG channel = molecular target: T2, hERG channel (Homo sapiens, UniProt Q12809); assay: hERG channel current in HEK293 cells, automated patch clamp; assay type: cell-based; settings: HEK-293 cells stably expressing hERG, whole-cell patch clamp, 0.3-30 μM
T2 construct: expressed in transfected cells; host or cells: HEK-293 cells stably expressing hERG
T2 sequence (Q12809 whole entry): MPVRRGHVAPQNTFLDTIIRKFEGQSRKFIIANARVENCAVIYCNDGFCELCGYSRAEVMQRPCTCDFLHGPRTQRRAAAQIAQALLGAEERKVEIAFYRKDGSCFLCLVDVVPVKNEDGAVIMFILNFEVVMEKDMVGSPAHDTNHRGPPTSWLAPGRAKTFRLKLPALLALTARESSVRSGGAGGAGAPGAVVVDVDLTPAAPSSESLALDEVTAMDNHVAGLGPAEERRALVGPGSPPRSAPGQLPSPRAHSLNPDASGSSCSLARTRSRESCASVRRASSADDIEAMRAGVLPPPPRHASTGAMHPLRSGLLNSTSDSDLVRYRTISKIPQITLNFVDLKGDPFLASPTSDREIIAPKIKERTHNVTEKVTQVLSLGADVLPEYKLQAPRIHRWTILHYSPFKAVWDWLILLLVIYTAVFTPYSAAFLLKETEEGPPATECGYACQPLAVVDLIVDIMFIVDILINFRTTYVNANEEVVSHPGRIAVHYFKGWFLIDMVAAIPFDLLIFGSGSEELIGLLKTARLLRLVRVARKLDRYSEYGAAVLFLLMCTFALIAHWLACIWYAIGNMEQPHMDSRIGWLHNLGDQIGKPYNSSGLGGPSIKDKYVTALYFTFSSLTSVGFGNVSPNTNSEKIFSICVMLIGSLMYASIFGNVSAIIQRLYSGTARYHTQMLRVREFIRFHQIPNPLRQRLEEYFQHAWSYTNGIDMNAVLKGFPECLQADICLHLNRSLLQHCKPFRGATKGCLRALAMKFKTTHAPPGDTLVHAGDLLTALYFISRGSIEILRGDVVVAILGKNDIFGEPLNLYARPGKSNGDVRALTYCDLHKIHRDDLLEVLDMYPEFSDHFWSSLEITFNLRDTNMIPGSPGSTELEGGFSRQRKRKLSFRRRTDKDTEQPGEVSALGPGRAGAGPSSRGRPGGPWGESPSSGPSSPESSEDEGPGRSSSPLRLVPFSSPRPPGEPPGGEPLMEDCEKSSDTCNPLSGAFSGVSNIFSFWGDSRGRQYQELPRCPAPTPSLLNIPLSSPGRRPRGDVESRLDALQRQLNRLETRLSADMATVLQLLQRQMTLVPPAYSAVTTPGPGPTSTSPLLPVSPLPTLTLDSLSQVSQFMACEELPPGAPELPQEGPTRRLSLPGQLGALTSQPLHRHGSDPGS
Protocol: Test 2: Detection of the Effect of Compounds on hERG Channel Currents Stably Expressed in HEK293 Cells Using Automated Patch Clamp
Experimental purpose: The concentration-effect relationship of the blocking effect of the compounds on hERG channels was determined using the patch clamp technique and HEK-293 cells stably expressing hERG channels to evaluate their risk of inhibitory effect on cardiac hERG potassium channels.
Experimental method: hERG cells were clamped using the patch clamp technique to form a high-resistance seal and then the membrane was broken. The whole-cell recording mode was used to record the hERG current. Each drug concentration was set to be administered twice for at least 5 minutes. The test concentrations were 0.3 μM, 1 μM, 3 μM, 10 μM and 30 μM, and the changes of the test compounds on hERG current were observed.

CYP3A4 = molecular target: T3, CYP3A4 (Homo sapiens, UniProt P08684); assay: Inhibition of human liver microsomal CYP3A4; assay type: in vitro ADME; settings: human liver microsomes, 10 μM test substance
T3 construct: from tissue; host or cells: human liver microsomes
T3 sequence (P08684 whole entry): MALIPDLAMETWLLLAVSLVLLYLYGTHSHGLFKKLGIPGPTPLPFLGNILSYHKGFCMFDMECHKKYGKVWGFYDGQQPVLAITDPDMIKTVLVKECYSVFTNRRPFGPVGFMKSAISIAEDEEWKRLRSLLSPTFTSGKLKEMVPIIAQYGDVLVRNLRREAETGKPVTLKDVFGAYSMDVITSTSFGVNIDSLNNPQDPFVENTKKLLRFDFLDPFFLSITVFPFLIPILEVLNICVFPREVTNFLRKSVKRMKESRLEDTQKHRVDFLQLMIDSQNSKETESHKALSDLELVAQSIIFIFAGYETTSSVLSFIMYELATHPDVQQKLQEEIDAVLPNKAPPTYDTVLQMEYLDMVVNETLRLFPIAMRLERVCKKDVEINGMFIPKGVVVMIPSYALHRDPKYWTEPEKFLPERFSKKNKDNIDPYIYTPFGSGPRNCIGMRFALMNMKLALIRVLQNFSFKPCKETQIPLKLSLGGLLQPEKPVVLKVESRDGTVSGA
Protocol: Experimental purpose: The inhibitory effects of the test compounds on the major metabolizing enzymes CYP1A2, CYP2C19, CYP2D6 and CYP3A4 in microsomes were evaluated using the human liver microsomal system. Experimental method: The test substance was incubated with a suspension of human liver microsomes containing cytochrome P450 enzymes CYP1A2, CYP2C19, CYP2D6 and CYP3A4 at a concentration of 10 μM in the final incubation system. The known substrates were metabolized by the corresponding single enzymes to generate specific metabolites, and the metabolites were determined by UPLC-MS/MS method. The relative inhibition rate (%) was calculated by the percentage reduction of metabolite production by the test compound and solvent DMSO in the same time period. N is the concentration value of the probe substrate metabolite and it is assumed that the […] with or without inhibitor at 0 min is 0. N+inh is the metabolite concentration in the group with inhibitor, and Nveh is the metabolite concentration in the group without inhibitor. The results of the inhibition test of the compounds of the present invention on human liver microsomal CYP enzymes are shown in Table C.

CYP2B6 = assay: Induction of CYP2B6 in frozen human hepatocytes; assay type: in vitro ADME; settings: 72 h induction, concentration and readout not stated; for CYP2B6 Induction percentage relative to positive control (%): positive control Phenobarbital
Protocol: Experimental purpose: Using frozen human hepatocytes as the test system, the induction effects of the test substances on CYP1A2, CYP2B6 and CYP3A4 were evaluated from two aspects of enzyme activity and mRNA level.
Experimental method: 24 hours after cell plating, induction was started by adding medium containing the test compound (test concentrations were 10, 1, and 0.1 μM), and fresh drug-containing medium was replaced every 24 hours. After 72 hours of induction, the medium was replaced with medium containing CYP1A2, CYP2B6, and CYP3A4 specific substrates for 30 minutes of incubation. 100 μL was taken for treatment, and the labeled metabolites of the substrates were detected to evaluate the enzyme activity level. Finally, the cells were lysed and reverse transcribed, and the expression levels of CYP1A2, CYP2B6 and CYP3A4 genes in the cells were evaluated by real-time quantitative PCR.
The induction fold of the test compound compared with the blank control and the induction percentage of the test compound compared with the positive control were used as the basis for evaluating the induction potential of the test compound. Among them, the positive control for CYP1A2 is Omeprazole; the positive control for CYP2B6 is Phenobarbital; the positive control for CYP3A4 is Rifampicin.

[1] = Cell toxicity (Celltiter-Glo) in HEK-Blue hTLR8 cells; settings: human
Protocol: as §1, §2
Detection of cell activity: The calculation formula for cell activity % is as follows.
The cell activity % values were analyzed using GraphPad Prism software, and the compound dose-effect curves were fitted to calculate the CC50 values of the compounds.
Cell activity %=RLU compound/RLU DMSO Control*100%

[2] = probe Midazolam, substrate Midazolam, read-out: Relative inhibition rate (%) CYP3A4 (Midazolam)
[3] = probe Testosterone, substrate Testosterone, read-out: Relative inhibition rate (%) CYP3A4 (Testosterone)

| EC50 (hTLR8) [µM] | inhibition at 10 µM (CYP3A4; [2]) [%] | inhibition at 10 µM (CYP3A4; [3]) [%] | CYP2B6 Induction fold relative to blank control (CYP2B6) | CYP2B6 Induction percentage relative to positive control (%) (CYP2B6) | SMILES | IC50 (hERG channel) [µM] | CC50 at 24 h [1] [µM] |
| --- | --- | --- | --- | --- | --- | --- | --- |
| 0.042 | 9.6 | 6.3 | 0.6 | −4.1 | CCCC[C@](C)(CO)Nc1nc(N)nc2cc(-c3cc(=O)n(C)cc3CN3CCCCC3)ccc12 [Example 8] | > 30 | 98.3 |
| 0.034 | 15.3 | 18 | 0.5 | −4.8 | CCCC[C@](C)(CO)Nc1nc(N)nc2cc(-c3cc(=O)[nH]cc3CN(C)CCOC)cnc12 [Example 21] | > 30 | > 100 |
| 0.063 | 31.1 | 17.9 | 0.9 | −0.7 | CCCCN(C)Cc1c[nH]c(=O)cc1-c1cnc2c(N[C@@](C)(CO)CCCC)nc(N)nc2c1 [Example 28, (R)-4-(2-Amino-4-((1-hydroxy-2-methylhexan-2-yl)amino)pyrido[3,2-d]pyrimidin-7-yl)-5-((butyl(methyl)amino)methyl)pyridin-2(1H)-one] | > 30 | > 100 |
| 0.079 | 23.9 | 11.5 | 0.4 | −5.6 | C=CCCN(C)Cc1c[nH]c(=O)cc1-c1ccc2c(N[C@@](C)(CO)CCCC)nc(N)nc2c1 [Example 35] | – | > 100 |
